{"source": "patent US6444645B1", "about": "“Crosslink-stabilized indolicidin analogs” (The Regents of the University of California, priority 1998, dated 2002)", "key": {"[1]": {"tested_on": "Cryptococcus neoformans 271A", "conditions": "10, 30, 100 or 300 μg/ml in 10 mM PIPES pH 7.4; FIG. 3", "description": "(§1) Nutrient-containing agar (or agarose) plates were seeded with E. coli ML35, C. neoformans 271A, S. aureus 207A or C. albicans 16820. […] Following an initial incubation interval of 1 to 4 hr, the well-containing layer was overlayed with enriched (2×normal) solid medium in order to support microbial growth outside the perimeter of inhibition. After overnight incubation at 30° C. to 37° C., the antimicrobial activity was quantitated by measuring the clear zones around each well (zone of inhibition)."}, "[2]": {"tested_on": "Candida albicans 16820", "conditions": "10, 30, 100 or 300 μg/ml in 10 mM PIPES pH 7.4; FIG. 5", "description": "as §1"}, "[3]": {"tested_on": "Staphylococcus aureus 207A", "conditions": "10, 30, 100 or 300 μg/ml in 10 mM PIPES pH 7.4; FIG. 4", "description": "as §1"}, "[4]": {"tested_on": "Escherichia coli ML35", "conditions": "10, 30, 100 or 300 μg/ml in 10 mM PIPES pH 7.4; FIG. 2", "description": "as §1"}, "[5]": {"tested_on": "C. neoformans 271A", "conditions": "4 hr", "description": "(§2) Microbicidal activity was measured by first incubating the target organism with the peptide in 10 mM PIPES buffer (pH 7.4), then plating the suspension to quantitate surviving microorganisms.\n(§3) Cultures were grown to mid log phase in an appropriate medium, harvested, washed, and resuspended to 1-2×10^7 colony forming units (CFU) per ml. To conserve peptide, the incubation volume usually was 0.05 ml, with the final cell concentration being 1-2×10^6 CFU/ml. Peptide stock solutions, usually made up in […], were diluted in the incubation buffer to a final concentration of 1 μg/ml to 30 μg/ml, and the incubation was initiated by addition of an appropriate volume of the bacterial or fungal stock suspension to the prewarmed (37° C.) peptide-buffer mixture. E. coli and S. aureus were incubated with peptide for 30 min; C. albicans was incubated for 60 min; and C. neoformans was incubated for 4 hr. Following incubation, 50 μl or 100 μl samples were removed and diluted serially, then plated on nutrient-containing agar plates."}, "[6]": {"tested_on": "C. albicans", "conditions": "60 min, 10 mM PIPES pH 7.4", "description": "as §2, §3"}, "[7]": {"tested_on": "E. coli ML35", "conditions": "30 min", "description": "as §2, §3"}, "[8]": {"tested_on": "S. aureus 207A", "conditions": "30 min", "description": "as §2, §3"}, "[9]": {"tested_on": "α-chymotrypsin", "conditions": "α-chymotrypsin 1% by weight, 0.1 M Tris buffer pH 7.7, 37° C., RP-HPLC"}, "[10]": {"conditions": "10 μg/ml peptide, 10 mM PIPES pH 7.4"}}, "note": "Where two headings read alike, the source gives them in different places.", "data": [{"substance": "Ile-Leu-Pro-Trp-Lys-Trp-Pro-Trp-Trp-Pro-Trp-Arg-Arg-CONH2 [Indol 1-13]", "values": [{"measurement": "growth inhibition (zone of inhibition)", "setting": "[1]", "result": "inhibited the growth of each microorganism tested in a dose dependent manner"}, {"measurement": "growth inhibition (zone of inhibition)", "setting": "[2]", "result": "inhibited the growth of each microorganism tested in a dose dependent manner"}, {"measurement": "growth inhibition (zone of inhibition)", "setting": "[3]", "result": "inhibited the growth of each microorganism tested in a dose dependent manner"}, {"measurement": "growth inhibition (zone of inhibition)", "setting": "[4]", "result": "inhibited the growth of each microorganism tested in a dose dependent manner"}, {"measurement": "reduction of survival (CFU)", "setting": "[5]; [10]", "result": "greater than three orders of magnitude"}, {"measurement": "additional killing versus 10 μg/ml", "setting": "[5]; 30 μg/ml peptide", "result": "minimal additional killing"}, {"measurement": "reduction of survival (CFU)", "setting": "[6]; 10 μg/ml peptide", "result": "about two orders of magnitude"}, {"measurement": "reduction of survival (CFU)", "setting": "[6]; 30 μg/ml peptide", "result": "greater than three orders of magnitude"}, {"measurement": "reduction of survival (CFU)", "setting": "[7]; [10]", "result": "greater than three orders of magnitude"}, {"measurement": "additional killing versus 10 μg/ml", "setting": "[7]; 30 μg/ml peptide", "result": "minimal additional killing"}, {"measurement": "reduction of survival (CFU)", "setting": "[8]; [10]", "result": "greater than three orders of magnitude"}, {"measurement": "additional killing versus 10 μg/ml", "setting": "[8]; 30 μg/ml peptide", "result": "minimal additional killing"}, {"measurement": "time within which all of the peptide was digested", "setting": "[9]", "result": "≤ 6", "unit": "h"}]}]}
